ChEMBL document CHEMBL1138402, “CCR5 receptor antagonists: discovery and SAR study of guanylhydrazone derivatives” (Bioorg Med Chem Lett, 2007)

Target: C-C chemokine receptor type 5 (Homo sapiens, UniProt P51681)
Experiment: Displacement of [125I]MIP1-alpha from human CCR5/CD4 expressed in HEK293 cells
Type: cell-based

Sequence of C-C chemokine receptor type 5 (P51681 whole entry): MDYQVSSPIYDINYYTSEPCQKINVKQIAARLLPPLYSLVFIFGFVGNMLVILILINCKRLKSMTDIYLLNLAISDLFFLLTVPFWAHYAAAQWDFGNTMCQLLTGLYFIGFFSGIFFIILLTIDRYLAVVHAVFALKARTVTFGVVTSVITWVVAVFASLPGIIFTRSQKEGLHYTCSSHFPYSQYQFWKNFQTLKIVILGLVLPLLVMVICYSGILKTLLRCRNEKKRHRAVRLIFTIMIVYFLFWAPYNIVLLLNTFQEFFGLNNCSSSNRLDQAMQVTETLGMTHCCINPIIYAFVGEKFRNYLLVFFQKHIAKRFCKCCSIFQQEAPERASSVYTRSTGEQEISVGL

IC50 [nM]	SMILES
600	CN(C)Cc1cc(Br)ccc1OCc1ccc(Cl)cc1
1400	CCN(CC)Cc1cc(Br)ccc1OCc1ccc(Cl)cc1
700	COc1ccc(COc2ccc(Br)cc2/C=N/NC(=N)N)cc1
2900	N=C(N)N/N=C/c1cc(Br)ccc1OCc1ccc(OCc2ccccc2)cc1
8700	COc1ccc([N+](=O)[O-])cc1COc1ccc(Br)cc1/C=N/NC(=N)N
> 30000	N=C(N)N/N=C/c1cccc(Cl)c1OCc1ccc(Cl)cc1
> 30000	COc1cc(Br)cc(/C=N/NC(=N)N)c1OCc1ccc(Cl)cc1
1600	COC(=O)c1cccc(COc2ccc(Br)cc2/C=N/NC(=N)N)c1
39000	N=C(N)N/N=C/c1cc(Br)ccc1OCc1cccc(C(=O)O)c1
500	Cc1ccc(COc2ccc(Br)cc2/C=N/NC(=N)N)cc1
1700	Cc1cccc(COc2ccc(Br)cc2/C=N/NC(=N)N)c1
1100	N=C(N)N/N=C/c1cc(Br)ccc1OCc1cccc2ccccc12
8500	C/C(=N/NC(=N)N)c1cc(Cl)ccc1OCc1ccc(Cl)cc1
14000	CN(/N=C/c1cc(Br)ccc1OCc1ccc(Cl)cc1)C1=NCCN1
600	N=C(N)N/N=C/c1cc(Br)ccc1OCc1ccc(Br)cc1
480	N#Cc1ccc(COc2ccc(Br)cc2/C=N/NC(=N)N)cc1
2000	N#Cc1cccc(COc2ccc(Br)cc2/C=N/NC(=N)N)c1
1700	N=C(N)N/N=C/c1cc(Br)ccc1OCc1cccc([N+](=O)[O-])c1
600	N=C(N)N/N=C/c1cc(Cl)ccc1OCc1ccc(Cl)cc1
3400	N=C(N)N/N=C/c1cc(F)ccc1OCc1ccc(Cl)cc1
3100	N=C(N)N/N=C/c1cc(Cl)cc(Cl)c1OCc1ccc(Cl)cc1
5700	N=C(N)N/N=C/c1cc(Br)ccc1OCc1ccccc1[N+](=O)[O-]
> 30000	CC(C)(C)c1ccc(OCc2ccc(Cl)cc2)c(/C=N/NC(=N)N)c1
600	N#Cc1ccc(OCc2ccc(Cl)cc2)c(/C=N/NC(=N)N)c1

IC50 [nM]	SMILES
> 30000	N=C(N)N/N=C/c1ccc(Cl)cc1OCc1ccc(Cl)cc1
200	C/C(=N\NC(=N)N)c1cc(Br)ccc1OCc1ccc(Cl)cc1
1300	COC(=O)c1ccc(COc2ccc(Br)cc2/C=N/NC(=N)N)cc1
> 30000	CCN(CC)c1ccc(OCc2ccc(Cl)cc2)c(/C=N/NC(=N)N)c1
93	COc1cc(Br)cc(/C(C)=N/NC(=N)N)c1OCc1ccc(C#N)cc1
400	CC/C(=N\NC(=N)N)c1cc(Br)cc(OC)c1OCc1ccc(Cl)cc1
> 30000	CC(C)C/C(=N\NC(=N)N)c1cc(Cl)ccc1OCc1ccc(F)cc1
> 30000	COC(=O)c1ccc(OCc2ccc(Cl)cc2)c(/C=N/NC(=N)N)c1
> 30000	N=C(N)N/N=C/c1cc(N)ccc1OCc1ccc(Cl)cc1
1000	Clc1ccc(COc2ccc(Br)cc2CN2CCOCC2)cc1
1700	N=C(N)N/N=C/c1cc(Br)ccc1OCc1ccc(-c2ccccc2)cc1
3700	N=C(N)N/N=C/c1cc(Br)ccc1OCc1ccc(F)cc1F
140	C/C(=N\NC(=N)N)c1cc(Cl)ccc1OCc1ccc(Cl)cc1
4200	CCCC/C(=N\NC(=N)N)c1cc(Cl)ccc1OCc1ccc(F)cc1
750	Clc1ccc(COc2ccc(Br)cc2/C=N/NC2=NCCN2)cc1
900	N=C(N)N/N=C/c1cc(Br)ccc1OCc1ccc([N+](=O)[O-])cc1
1200	N=C(N)N/N=C/c1cc([N+](=O)[O-])ccc1OCc1ccc(Cl)cc1
> 30000	N=C(N)N/N=C/c1cccc(F)c1OCc1ccc(Cl)cc1
1900	N=C(N)N/N=C/c1cc(Br)ccc1OCc1ccccc1
800	N=C(N)N/N=C/c1cc(Br)ccc1OCc1ccc(F)cc1
840	N=C(N)N/N=C/c1cc(Br)ccc1OCc1ccc(Cl)cc1
2000	Clc1ccc(COc2ccc(Br)cc2/C=N/NC2=NCCCN2)cc1
> 30000	N=C(N)N/N=C/c1ccccc1OCc1ccc(Cl)cc1
